What was measured:
corn = assay: Test B pre/postemergence corn; assay type: in vivo, Zea mays
How it was run: (§1)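 Test chemicals in a non-phytotoxic solvent mixture with surfactant were sprayed preemergence onto planted seeds and postemergence onto plants 2 to 18 cm tall (1- to 4-leaf stage). After twelve to sixteen days in a greenhouse, injury was visually rated against untreated controls from 0 (no effect) to 10 (complete control).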

crabgrass = assay: Test B pre/postemergence crabgrass; assay type: in vivo, Digitaria sanguinalis
How it was run: as §1

velvetleaf = assay: Test B pre/postemergence velvetleaf; assay type: in vivo, Abutilon theophrasti
How it was run: as §1

rice = assay: Test B flood test rice; assay type: in vivo, Oryza sativa
How it was run: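 Read-out is a visual response score from 0 (no effect) to 10 (complete control), assigned by comparison with untreated controls. Treatment was applied at the 2-leaf stage, and plants stayed in the greenhouse for twelve to sixteen days before scoring.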

winter wheat [1] = assay: Test E winter wheat; assay type: in vivo, Triticum aestivum; conditions: Postemergence, 0 to 100 scale
How it was run: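 Postemergence: 60:40 sandy loam/greenhouse potting mix, 1- to 4-leaf stage. Formulation: solvent plus surfactant. Assessment: visual comparison with untreated controls at ~21–28 days.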

blackgrass = assay: Test E blackgrass; assay type: in vivo, Alopecurus myosuroides; conditions: Preemergence
green foxtail = assay: Test E green foxtail; assay type: in vivo, Setaria viridis; conditions: Preemergence
Italian ryegrass = assay: Test E Italian ryegrass; assay type: in vivo, Lolium multiflorum; conditions: Preemergence
winter wheat [2] = assay: Test E winter wheat; assay type: in vivo, Triticum aestivum; conditions: Preemergence
wild oat = assay: Test E wild oat; assay type: in vivo, Avena fatua; conditions: Preemergence
winter barley = assay: Test E winter barley; assay type: in vivo, Hordeum vulgare; conditions: Preemergence
[3] = Preemergence, Rate 62 g/ha, scale of 0 to 10 where 0 is no effect and 10 is complete control
[4] = Preemergence, Rate 125 g/ha, 0 is no effect, 10 is complete control
[5] = Preemergence, Rate 250 g/ha, scale 0 to 10, 0 is no effect, 10 is complete control
[6] = Preemergence, Rate 500 g/ha, scale 0 to 10 (0 no effect, 10 complete control)
[7] = Rate 62 g/ha, Postemergence, scale of 0 to 10 where 0 is no effect and 10 is complete control
[8] = Rate 125 g/ha, Postemergence, scale 0 to 10
[9] = Rate 500 g/ha, Postemergence, scale 0 to 10
[10] = Rate 125 g/ha, 0 to 100 scale (0 no effect, 100 complete control)
[11] = Rate 500 g/ha, 0 to 100 scale where 0 is no effect and 100 is complete control

In the case of `Cc1nc(C)c(Cn2c(=O)on(C(=O)N(c3ccc(F)cc3)C(C)C)c2=O)s1` [Compound 192], the “Corn plant response rating” value (corn; [3]) is reported as 0, the “Corn plant response rating (0 to 10 scale)” value (corn; [4]) is reported as 0 and the “Corn plant response rating” value (corn; [5]) is reported as 0. The “Corn plant response rating” value (corn; [6]) was 4, the “Corn plant response rating” value (corn; [7]) was 0 and the “Corn plant response rating” value (corn; [8]) was 0. The “Plant response rating (0 to 10; 0 is no effect, 10 is complete control), Corn” value (corn; Rate 250 g/ha, Postemergence) was 0, the “Corn plant response rating” value (corn; [9]) was 0 and the “Crabgrass plant response rating” value (crabgrass; [3]) was 2. For the same molecule, the “Crabgrass plant response rating (0 to 10 scale)” value (crabgrass; [4]) was 6, the “Crabgrass plant response rating” value (crabgrass; [5]) was 7 and the “Crabgrass plant response rating” value (crabgrass; [6]) was 9. For the same molecule, the “Crabgrass plant response rating” value (crabgrass; [7]) was 1, the “Crabgrass plant response rating” value (crabgrass; [8]) was 1 and the “Plant response rating (0 to 10; 0 is no effect, 10 is complete control), Crabgrass” value (crabgrass; Rate 250 g/ha, Postemergence) was 1. The “Crabgrass plant response rating” value (crabgrass; [9]) was 2, the “Velvetleaf plant response rating” value (velvetleaf; [3]) was 0 and the “Velvetleaf plant response rating” value (velvetleaf; [5]) was 5. The “Velvetleaf plant response rating” value (velvetleaf; [6]) was 6, the “Velvetleaf plant response rating” value (velvetleaf; [7]) was 0 and the “Velvetleaf plant response rating” value (velvetleaf; [8]) was 2. The “Plant response rating (0 to 10; 0 is no effect, 10 is complete control), Velvetleaf” value (velvetleaf; Rate 250 g/ha, Postemergence) was 3, the “Rice plant response rating” value (rice; Rate 62 g/ha, headed Pre-emergence (flood test species), scale 0 to 10 (0 no effect, 10 complete control)) was 0 and the “Rice plant response rating” value (rice; Rate 125 g/ha, Pre-emergence, flood test species, scale 0 to 10 where 0 is no effect and 10 is complete control) was 0. The “Rice plant response rating” value (rice; Rate 250 g/ha, Pre-emergence, flood-test species, scale 0 to 10, 0 is no effect, 10 is complete control) was 0, the “Plant response rating, Rice” value (rice; Rate 500 g/ha, headed Pre-emergence (flood test species), scale 0 to 10 (0 no effect, 10 complete control)) was 0 and the “Plant response rating, Wheat (winter)” value (winter wheat [1]; Rate 125 g/ha) was 30. For the same molecule, the “Plant response rating, Wheat (winter)” value (winter wheat [1]; Rate 500 g/ha, 0 is no effect, 100 is complete control) was 50, the “Plant response rating, Blackgrass” value (blackgrass; [10]) was 40 and the “Plant response rating, Blackgrass” value (blackgrass; [11]) was 50. For the same molecule, the “Plant response rating, Green foxtail” value (green foxtail; [10]) was 50, the “Plant response rating, Green foxtail” value (green foxtail; [11]) was 65 and the “Plant response rating, I. Ryegrass” value (Italian ryegrass; [10]) was 20. For the same molecule, the “Plant response rating, I. Ryegrass” value (Italian ryegrass; [11]) was 60, the “Plant response rating, Wheat (winter)” value (winter wheat [2]; [10]) was 10 and the “Plant response rating, Wheat (winter)” value (winter wheat [2]; [11]) was 40. For the same molecule, the “Plant response rating, Wild oat” value (wild oat; [10]) was 30, the “Plant response rating, Wild oat” value (wild oat; [11]) was 55 and the “Plant response rating, Barley (winter)” value (winter barley; [10]) was 20. For the same molecule, the “Plant response rating, Barley (winter)” value (winter barley; [11]) was 30.

Source: patent US6737383B1, “Herbicidal oxadiazolidines” (priority 1999, dated 2004)
